Test results from patent publication US8222242B2, “Nitric oxide releasing compounds” (The Regents of the University of California, priority 2008, dated 2012).

Columns and labels:
[1] = test system: Malpighian tubules isolated from D. melanogaster; assay: Malpighian tubule fluid secretion; set-up: species or system Drosophila melanogaster; settings: 1 mM cobinamide or Cbi(II), 5 mM ascorbic acid, half-strength Schneider's medium
Experimental: Malpighian tubules are the osmoregulatory organs of D. melanogaster, corresponding to vertebrate kidneys. Tubular fluid secretion is stimulated by NO and cGMP, and fluid secretion rates were measured as described previously (Broderick K E et al. (2005) J. Biol. Chem. 280:8678-85). Briefly, the Malpighian tubule pair of a fly was resected and suspended in mineral oil. […]
Malpighian tubules are an excellent model for studying the effects of a drug on an intact organ system (Broderick K E et al. (2003) Am. J. Physiol. Cell Physiol. 285:C1207-18). […] Deta-NONOate may not be affected as much by cysteine in the medium, because it has a slower NO release rate and the intact drug can be transported intracellularly before much NO is released.

[2] = test system: CS-54 rat vascular smooth muscle cells; settings: added to CS-54 cells
Experimental: CS-54 rat vascular smooth muscle cells were treated with the indicated concentrations of NO-Cbi for 1 hour (A), or 10 μM NO-Cbi for the indicated times (B and C). […] (C) Cell extracts were clarified by centrifugation, and nitrite and nitrate in the extracts were measured by an enhanced Griess reagent method. In A and B, “Con” refers to control, which was cells treated with water. As indicated, the effects of 30 μM cobinamide (Cbi) and 100 μM 8-CPT-cGMP (cGMP) are shown for comparison. In A and B, similar results were obtained in two other experiments.
Nitrite and nitrate were measured in CS-54 cell extracts and fly extracts using a kit from Active Motif based on an enhanced Griess reagent, as described previously (Broderick K E et al. (2006) FASEB J. 20:1865-73).

[3] = test system: vasodilator-stimulated phosphoprotein (VASP) phosphorylated on Ser239 in CS-54 rat vascular smooth muscle cells; assay: VASP phosphorylation in CS-54 cells (immunoblot); assay type: cell-based; settings: added to CS-54 cells; 30 μM cobinamide shown
Experimental: CS-54 rat vascular smooth muscle cells were treated with the indicated concentrations of NO-Cbi for 1 hour (A), or 10 μM NO-Cbi for the indicated times (B and C). […] In A and B, “Con” refers to control, which was cells treated with water. As indicated, the effects of 30 μM cobinamide (Cbi) and 100 μM 8-CPT-cGMP (cGMP) are shown for comparison. In A and B, similar results were obtained in two other experiments.
Briefly, cells treated with an NO-releasing agent were extracted rapidly in a sodium dodecyl sulfate (SDS) containing sample buffer, and the cell extracts were subjected to SDS-polyacrylamide gel electrophoresis. Phospho-VASP was assessed by immunoblotting using an antibody specific for VASP phosphorylated on Ser259 (Smolenski A et al. (1998) J. Biol. Chem. 273:20029-35).
To determine if NO released from NO-Cbi can have a physiologic effect in cultured cells, vasodilator-stimulated phosphoprotein (VASP) phosphorylation was assessed in CS-54 cells.

[4] = test system: mice; assay type: in vivo, mouse; settings: for effect on blood pressure (controls) / effect on heart rate (controls): intraperitoneally, 8 mM Cbi(II) shown
Experimental: Mice were anesthetized with 1.5% isoflurane gas, and after achieving a stable blood pressure and pulse (about 10 minutes), they were injected intraperitoneally with 100 μl of […] 8 mM Cbi(II) (open circles, solid line), 8 mM NO-Cbi (filled circles, dashed line), or 8 mM nitroglycerin (squares, dotted lines) (panels a and b). Control refers to anesthetized mice who received 100 μl water (triangles, solid line). In panel C, 100 μl of 6 mM NO-Cbi was injected at 0, 32, and 64 minutes as indicated by the arrows. Systolic and diastolic blood pressures, and pulse rate, were measured at the indicated times on the tail artery using a non-invasive tail cuff. The percent change in mean arterial pressure (A and C), and pulse rate (B and C) are shown. For panels A and B, data are the mean±SD of results from five mice for NO-Cbi studied on separate days, and four mice for the other conditions. […] Data in panel C are the mean±SD of results from three mice studied on different days.
Pulse, and systolic and diastolic blood pressures, were measured non-invasively in the tail artery of mice by restraining mice on a warming platform maintained at ˜38° C. The base of the tail was placed in a computer-controlled pneumatic cuff, and the distal tail was placed in a sensor assembly consisting of a light emitting diode and a photodiode detector. Baseline measurements were made with the mice awake in a dark chamber. The mice were then anesthetized with 3% isoflurane in an induction chamber, and returned to the platform where they received 1.5% isoflurane with 2 liter per minute of oxygen via a nose cone; the isoflurane caused a small, but stable, drop in blood pressure. Drugs in a volume of 100 ul were injected intraperitoneally into the mice, and pulse and blood pressure were measured every 5-15 minute, taking five readings at each time point.
To determine the effect of NO release from NO-Cbi in an intact mammal, blood pressure and pulse of mice injected intraperitoneally with NO-Cbi were measured.

[5] = cited from earlier work
[6] = test system: isolated mouse hearts; assay: Coronary flow in isolated perfused mouse hearts (Langendorff)
Experimental: Hearts and aortas were removed from NIH Swiss mice anesthetized with sodium nembutal, and coronary flow was measured in the hearts using a Langendorff preparation (FIG. 5a) and relaxation of aortic rings was measured after inducing constriction of the rings with prostaglandin F2α (FIG. 5b). The hearts and aortic rings were treated with a range of concentrations of NO-Cbi (filled circles), nitroglycerin (open circles, dotted line, FIG. 5a), and sodium nitroprusside (open circles, FIG. 5b). Coronary flow was measured on the same hearts for both NO-Cbi and nitroglycerin after an appropriate wash-out period between drugs, and aortic ring relaxation was measured on two rings from the same aorta for NO-Cbi and sodium nitroprusside. The data are the mean of two independent experiments performed on two separate hearts in each experiment (FIG. 5a), and the mean±SEM of two independent experiments performed on three separate aortic rings in each experiment (FIG. 5b).
Coronary flow was measured in isolated perfused mouse hearts in a Langendorff system, and was 10.8±0.5 ml/min/g wet weight (n=7 hearts) under basal conditions. […] The latter value is similar to maximal coronary flow of 24.6±1.8 ml/min/g wet weight obtained with 62 μM adenosine. For nitroglycerin to increase coronary flow to that of NO-Cbi, the nitroglycerin concentration had to be increased to 770 μM, or about 100-fold greater than the NO-Cbi concentration (FIG. 5a).

[7] = test system: D. melanogaster; assay: Viability of injected D. melanogaster; settings: 1 μl injected; 1 mM (ascorbic acid 5 mM); observed 48 h
Experimental: (A) Tubular secretion rates of Malpighian tubules isolated from D. melanogaster were measured, using half-strength Schneider's medium. Basal tubular secretion was measured at 0, 10, and 20 minutes; at 20 minutes (depicted by the arrow) 1 mM cobinamide (Cbi, open circles), 1 mM NO-Cbi (filled circles), 0.5 mM Deta-NONOate (diamonds), or 100 μM 8-CPT-cGMP (inverted triangles) were added. Results are the mean±S.D. of three independent experiments performed on Malpighian tubule pairs from 10 flies. […] (B). Flies were injected with 1 μl of 1 mM cobinamide (Cbi, open circles), 1 mM NO-Cbi (filled circles), 0.5 mM Deta-NONOate (diamonds), or 1 mM spermine NONOate (squares). […] The data are plotted as a Kaplan-Meier survival curve, and are the mean±SD of three experiments, with 10 flies per condition per experiment. […] (C). Flies were injected with 1 μl of water (control, open bar), 1 mM cobinamide (Cbi, grey bar), or 1 mM NO-Cbi (black bars). Flies were killed and extracts were prepared at 3 hours for the water- and cobinamide-injected flies, and at the indicated times for the NO-Cbi-injected flies. Nitrite and nitrate in the extracts were measured using an enhanced Griess reagent.
The fluid volume of a fly is […], and thus, the injected agent was diluted about 10-fold. […]

[8] = test system: rabbits; assay: Rabbits with phenylephrine-induced hypertension; assay type: in vivo, rabbit; settings: phenylephrine 5 to 20 μg/kg/min continuous intravenous infusion
Experimental: Phenylephrine was given by continuous intravenous infusion to an anesthetized rabbit at increasing rates from 5 to 20 μg/kg/min; the rabbit remained on the highest phenylephrine infusion rate until the end of the experiment (darker arrows with “A”-shaped arrowheads indicate start times of each increasing dose). At 49 minutes, an infusion of NO-Cbi was started at a rate of 3 μg/kg/min (2.9 nmol/kg/min), with the infusion rate doubled at 58 minutes (lighter arrows with triangular-shaped arrowheads indicate start times of infusions). Systolic and diastolic blood pressure recordings from an intra-arterial catheter are shown. Changes in total hemoglobin, oxyhemoglobin, and deoxyhemoglobin concentrations were measured by continuous wave near-infrared spectroscopy over the left thigh muscle. Phenylephrine caused a progressive decrease in total hemoglobin and oxyhemoglobin concentrations, which reversed within seconds of starting the NO-Cbi infusion.
Decreased tissue oxygenation as occurred in the experiments shown in FIGS. 7 and 8 would clearly be an undesirable effect of treating hypertensive patients with NO-Cbi. However, lowering blood pressure of a hypertensive patient is very different from lowering blood pressure of a normotensive subject, and the experiments described in Example 15 rabbits with normal or low (due to anesthesia) blood pressure. To simulate a hypertensive state, the blood pressure of rabbits was raised using a continuous intravenous infusion of phenylephrine, a peripheral vasoconstrictor (FIG. 9). As the rabbit's blood pressure increased above normal, tissue perfusion and oxygenation decreased, as evidenced by a decrease in total hemoglobin and oxyhemoglobin concentrations in muscle.
Thus, in an animal with drug-induced hypertension, NO-Cbi improved tissue perfusion and oxygenation as it lowered blood pressure.

| SMILES | effect on nitrite/nitrate levels (controls) [2] | effect on VASP phosphorylation (controls) [3] | effect on blood pressure (controls) [4] | effect on heart rate (controls) [4] | further results |
| --- | --- | --- | --- | --- | --- |
| C/C1=C2/[N-][C@H]([C@H](CC(N)=O)[C@@]2(C)CCC(=O)NC[C@@H](C)O)[C@]2(C)N=C(/C(C)=C3N=C(/C=C4N=C1[C@@H](CCC(N)=O)C\4(C)C)[C@@H](CCC(N)=O)[C@]\3(C)CC(N)=O)[C@@H](CCC(N)=O)[C@]2(C)CC(N)=O.[Co] [Cbi(II), reference compound] | Neither cobinamide, Cbi(II), or ascorbate had any effect | Neither cobinamide, Cbi(II), or ascorbate had any effect | no significant effect | no significant effect | effect on tubular secretion (controls) [1]: Neither cobinamide nor Cbi(II) significantly affected tubular secretion |
| NCCN(CCN)/[N+]([O-])=N/O [Deta-NONOate] | – | – | – | – | half-life [5]: ~50 h |
| Nc1ncnc2c1ncn2[C@@H]1O[C@H](CO)[C@@H](O)[C@H]1O [adenosine] | – | – | – | – | maximal coronary flow ([6]; 62 μM): 24.6±1.8 ml/min/g wet weight |
| O=C1O[C@H]([C@@H](O)CO)C(O)=C1O [ascorbate, ascorbic acid, reference compound] | Neither cobinamide, Cbi(II), or ascorbate had any effect | Neither cobinamide, Cbi(II), or ascorbate had any effect | no significant effect | no significant effect | – |
| C/C1=C2/[N-][C@H]([C@H](CC(N)=O)[C@@]2(C)CCC(=O)NC[C@@H](C)O)[C@]2(C)N=C(/C(C)=C3N=C(/C=C4N=C1[C@@H](CCC(N)=O)C\4(C)C)[C@@H](CCC(N)=O)[C@]\3(C)CC(N)=O)[C@@H](CCC(N)=O)[C@]2(C)CC(N)=O.[Co+3] [cobinamide, reference compound] | Neither cobinamide, Cbi(II), or ascorbate had any effect | Neither cobinamide, Cbi(II), or ascorbate had any effect | no significant effect | no significant effect | effect on tubular secretion (controls) [1]: Neither cobinamide nor Cbi(II) significantly affected tubular secretion; fly killing / toxicity to flies [7]: not toxic to flies |
| O=[N+]([O-])OCC(CO[N+](=O)[O-])O[N+](=O)[O-] [nitroglycerin] | – | – | – | – | concentration relative to the NO-Cbi concentration for equal coronary flow [6]: about 100 fold; coronary flow ([6]; 12.0 μM infused): 15.3±1.0 ml/min/g wet weight; increase of coronary flow ([6]; 12.0 μM infused): 34%; concentration needed to increase coronary flow to that of NO-Cbi ([6]; versus 7 μM NO-Cbi): 770 µM; systolic and diastolic blood pressure ([4]; 0.8 μmol (100 μl of 8 mM) intraperitoneally, anesthetized mice): late decrease in blood pressure |
| CNC[C@H](O)c1cccc(O)c1 [phenylephrine, reference compound] | – | – | – | – | systolic and diastolic blood pressure [8]: increased the systolic and diastolic blood pressure; total hemoglobin and oxyhemoglobin in muscle [8]: decreased total hemoglobin and oxyhemoglobin in the muscle |
